Legend:
Experiment in all cases: relative viability (nuclei count vs DMSO), 5 days (fraction); higher = more cells survive
[1] = compound: CC(O)(CS(=O)(=O)c1ccc(F)cc1)C(=O)Nc1ccc(C#N)c(C(F)(F)F)c1 [Bicalutamide] + C[C@]1(O)C[C@@H](c2nc(-c3ccc4ccc(-c5ccccc5)nc4c3)c3c(N)nccn32)C1 [Linsitinib] (partner 1 µM)
Method in brief: (§1)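 Lung cancer cell lines were pin-tool dosed in 1536-well plates on the day after seeding, with either a lone drug or a fixed anchor-drug dose plus five library-drug doses (not always all listed) in √10 steps. Nuclei were counted on 4× images after 5 days. Relative viability is the ratio of treated-well to vehicle-well nuclei counts, with each value a median of duplicate plates.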

[2] = compound: CC(O)(CS(=O)(=O)c1ccc(F)cc1)C(=O)Nc1ccc(C#N)c(C(F)(F)F)c1 [Bicalutamide] + Nc1ncn([C@H]2C[C@H](O)[C@@H](CO)O2)c(=O)n1 [Decitabine] (partner 2 µM)
Method in brief: as §1

[3] = compound: CC(O)(CS(=O)(=O)c1ccc(F)cc1)C(=O)Nc1ccc(C#N)c(C(F)(F)F)c1 [Bicalutamide] + CC(=O)Nc1cccc(-n2c(=O)n(C3CC3)c(=O)c3c(Nc4ccc(I)cc4F)n(C)c(=O)c(C)c32)c1 [Trametinib] (partner 0.02 µM)
Method in brief: as §1

[4] = compound: C(C(=O)C(=O)O)Br [Bromopyruvate] + CCNC(=O)c1noc(-c2cc(C(C)C)c(O)cc2O)c1-c1ccc(CN2CCOCC2)cc1 [Luminespib] (partner 0.01 µM)
Method in brief: as §1

Row | Cell Line | relative viability ([1]; first compound 0.08 µM) | relative viability ([1]; first compound 0.253 µM) | relative viability ([1]; first compound 0.8 µM) | relative viability ([1]; first compound 2.53 µM) | relative viability ([2]; first compound 0.08 µM) | relative viability ([2]; first compound 0.253 µM) | relative viability ([2]; first compound 0.8 µM) | relative viability ([2]; first compound 2.53 µM) | relative viability ([3]; first compound 0.08 µM) | relative viability ([3]; first compound 0.253 µM) | relative viability ([3]; first compound 0.8 µM) | relative viability ([3]; first compound 2.53 µM) | relative viability ([4]; first compound 1 µM) | relative viability ([4]; first compound 3.162 µM) | relative viability ([4]; first compound 10 µM) | relative viability ([4]; first compound 31.62 µM) | relative viability ([4]; first compound 100 µM)
1 | HCC-78 | 0.585 | 0.462 | 0.599 | 0.445 | 0.726 | 0.589 | 0.819 | 0.71 | 0.94 | 0.653 | 0.86 | 0.779 | – | – | – | – | –
2 | HCC-366 | 0.659 | 0.541 | 0.905 | 0.624 | 0.369 | 0.284 | 0.351 | 0.327 | 0.388 | 0.231 | 0.454 | 0.284 | – | – | – | – | –
3 | HCC-827 | 0.945 | 0.896 | 0.993 | 0.964 | 0.337 | 0.252 | 0.384 | 0.351 | 0.58 | 0.459 | 0.552 | 0.547 | 0.684 | 0.607 | 1.01 | 0.886 | 0.619
4 | HOP-62 | 0.89 | 0.903 | 0.963 | 1.02 | 0.25 | 0.2 | 0.241 | 0.221 | 0.396 | 0.403 | 0.427 | 0.354 | 0.887 | 0.97 | 0.84 | 0.934 | 0.9
5 | IA-LM | 0.823 | 0.641 | 0.616 | 0.646 | – | – | – | – | – | – | – | – | – | – | – | – | –
6 | LC-2-ad | 0.818 | 0.796 | 0.847 | 0.891 | 0.808 | 0.831 | 0.857 | 0.909 | 0.892 | 0.86 | 0.961 | 0.907 | 1.02 | 1.11 | 1.21 | 1.04 | 0.843
7 | LCLC-97TM1 | 0.185 | 0.188 | 0.199 | 0.185 | 0.222 | 0.202 | 0.305 | 0.234 | 0.214 | 0.177 | 0.212 | 0.188 | 0.727 | 0.792 | 0.864 | 0.708 | 0.709
8 | LCLC-103H | 1.04 | 1.04 | 1.14 | 1.05 | 0.714 | 0.717 | 0.717 | 0.756 | 0.705 | 0.676 | 0.697 | 0.704 | 0.963 | 0.998 | 1.05 | 0.938 | 0.878
9 | LK-2 | 0.715 | 0.349 | 0.64 | 0.657 | 0.345 | 0.238 | 0.329 | 0.305 | 0.652 | 0.672 | 1.15 | 0.742 | 0.166 | 0.182 | 0.158 | 0.161 | 0.199
10 | LOU-NH91 | 0.921 | 0.778 | 0.96 | 1.01 | 0.769 | 0.817 | 0.83 | 0.836 | 0.755 | 0.724 | 0.82 | 0.791 | 0.321 | 0.316 | 0.372 | 0.348 | 0.321
11 | LU99A | 0.512 | 0.486 | 0.566 | 0.47 | 0.96 | 0.896 | 1.02 | 0.719 | 0.529 | 0.445 | 0.6 | 0.495 | 0.301 | 0.313 | 0.273 | 0.248 | 0.213
12 | NCI-H522 | – | – | – | – | 0.585 | 0.575 | 0.71 | 0.632 | 0.661 | 0.723 | 0.813 | 0.8 | 1.07 | 1.16 | 1.11 | 1.28 | 1.29
13 | NCI-H1299 | 1.04 | 1.03 | 1.17 | 1.01 | – | – | – | – | – | – | – | – | – | – | – | – | –
14 | NCI-H1563 | 1.28 | 1.2 | 1.12 | 1.07 | – | – | – | – | – | – | – | – | 0.482 | 0.559 | 0.489 | 0.466 | 0.532
15 | NCI-H1623 | – | – | – | – | – | – | – | – | – | – | – | – | 0.545 | 0.523 | 0.747 | 0.489 | 0.504
16 | NCI-H1648 | – | – | – | – | – | – | 0.475 | 0.458 | – | – | 0.395 | 0.546 | – | – | – | – | –
17 | NCI-H1650 | – | – | – | – | 0.452 | 0.369 | 0.45 | 0.436 | 0.586 | 0.529 | 0.713 | 0.473 | 0.19 | 0.224 | 0.186 | 0.177 | 0.182
18 | NCI-H1703 | 0.815 | 0.79 | 0.833 | 0.495 | – | – | – | – | – | – | – | – | – | – | – | – | –
19 | NCI-H2170 | – | – | – | – | 0.442 | 0.441 | 0.515 | 0.496 | 0.892 | 0.861 | 0.97 | 0.931 | 0.75 | 0.979 | 0.689 | 0.574 | 0.583
20 | NCI-H2228 | 0.627 | 0.573 | 0.824 | 0.957 | – | – | – | – | 0.39 | 0.54 | 0.616 | 0.34 | 0.182 | 0.144 | 0.148 | 0.145 | 0.193
21 | NCI-H2342 | – | – | – | – | 0.742 | 0.717 | 0.756 | 0.843 | 0.771 | 0.807 | 0.768 | 0.805 | 0.756 | 0.775 | 0.661 | 0.57 | 0.531
22 | SW 900 | – | – | – | – | 0.416 | 0.413 | 0.5 | 0.476 | 0.778 | 0.678 | 0.756 | 0.809 | 0.16 | 0.173 | 0.197 | 0.166 | 0.21
